These results are taken from patent US7384965B2, “Fused heterocyclic derivatives as PPAR modulators” (Eli Lilly and Company, priority 2003, dated 2008).

What is called melting point is the temperature of the solid-liquid transition. Consider `O=C(O)Cc1cccc(SCc2ccnc3oc(-c4ccc(C(F)(F)F)cc4)nc23)c1` [Example 99, 3-[2-(4-Trifluoromethylphenyl)oxazolo[5,4-b]pyridin-7-ylmethylsulfanyl]phenylacetic Acid], for which the melting point lay within 164 to 166 °C.

`CCc1cc(OCc2ccc3sc(-c4ccc(C(F)(F)F)cc4)nc3c2)ccc1CCC(=O)O` [Example 55, 3-{2-Ethyl-4-[2-(4-trifluoromethylphenyl)benzothiazol-5-ylmethoxy]phenyl}propionic Acid] yielded a melting point of 188 to 190 °C. Then `CCc1cc(SC(C)c2cccc3nc(-c4ccc(C(F)(F)F)cc4)oc23)ccc1OCC(=O)O` (racemic) [Example 81, (+/−)-2-Ethyl-4-{1-[2-(4-trifluoromethylphenyl)benzooxazol-7-yl]ethylsulfanyl}phenoxyacetic Acid], with 172 to 175 °C; and `Cc1cc(SC(C)c2cccc3nc(-c4ccc(C(F)(F)F)cc4)oc23)ccc1CCC(=O)O` (racemic) [Example 80, (+/−)-3-(2-Methyl-4-{1-[2-(4-trifluoromethylphenyl)benzooxazol-7-yl]ethylsulfanyl}phenyl)propionic Acid], with 128 to 130 °C; and `CCc1cc(SCc2ccnc3c2nc(-c2ccc(C(F)(F)F)cc2)n3C)ccc1OCC(=O)O` [Example 109, 2-Ethyl-4-[3-methyl-2-(4-trifluoromethylphenyl)-3H-imidazo[4,5-b]pyridin-7-ylmethylsulfanyl]phenoxyacetic Acid], with 118 to 120 °C. Compound `CCc1cc(SCc2ccc3sc(-c4ccc(C(F)(F)F)cc4)nc3c2)ccc1OCC(=O)O` [Example 53, 2-Ethyl-4-[2-(4-trifluoromethylphenyl)benzothiazol-5-ylmethylsulfanyl]phenoxyacetic Acid] returned a melting point of 140 to 142 °C. Then `Cn1c(-c2ccc(C(F)(F)F)cc2)nc2c(CSc3cccc(CC(=O)O)c3)cccc21` [Example 92, 3-[1-Methyl-2-(4-trifluoromethylphenyl)-1H-benzoimidazol-4-ylmethylsulfanyl]phenylacetic Acid], with 178 to 180 °C. Then `CCC(Sc1ccc(CCC(=O)O)c(C)c1)c1ccc2nc(-c3ccc(C(F)(F)F)cc3)sc2c1` (racemic) [Example 64, (+/−)-3-(2-Methyl-4-{1-[2-(4-trifluoromethylphenyl)benzothiazol-6-yl]propylsulfanyl}phenyl)propionic Acid], with 105 to 108 °C. The compound `CCc1cc(SCc2ccnc3sc(-c4ccc(C(F)(F)F)cc4)nc23)ccc1OCC(=O)O` [Example 102, 2-Ethyl-4-[2-(4-trifluoromethylphenyl)thiazolo[5,4-b]pyridin-7-ylmethylsulfanyl]phenoxyacetic Acid] came in with a melting point of 176 to 178 °C. `Cc1cc(SCCc2ccc3sc(-c4ccc(C(F)(F)F)cc4)nc3c2)ccc1CCC(=O)O` [Example 56, 3-(2-Methyl-4-{2-[2-(4-trifluoromethylphenyl)benzothiazol-5-yl]ethylsulfanyl}phenyl)propionic Acid] had a melting point of 108 to 110 °C. For `CCc1cc(OCc2ccc3nc(-c4ccc(C(F)(F)F)cc4)sc3c2)ccc1CCC(=O)O` [Example 61, 3-{2-Ethyl-4-[2-(4-trifluoromethylphenyl)benzothiazol-6-ylmethoxy]phenyl}propionic Acid] the value was 203 to 205 °C; for `Cc1cc(SCc2ccnc3[nH]c(-c4ccc(C(F)(F)F)cc4)nc23)ccc1OCC(=O)O` [Example 103, 2-Methyl-4-[2-(4-trifluoromethylphenyl)-3H-imidazo[4,5-b]pyridin-7-ylmethylsulfanyl]phenoxyacetic Acid], 239 to 241 °C; for `Cc1cc(SCc2cccc3oc(-c4ccc(C(F)(F)F)cc4)nc23)ccc1OCC(=O)O` [Example 65, 2-Methyl-4-[2-(4-trifluoromethylphenyl)benzooxazol-4-ylmethylsulfanyl]-phenoxyacetic Acid], 160 to 162 °C (dec.).
